Literature values in patent US7189385B2, “Tooth whitening compositions” (Discus Dental Impressions, Inc., priority 1997, dated 2007).

Conditions: listed as GRAS, 21 CFR 184.1901

**Q.** Which toxicity does the source give for CC(=O)OCC(COC(C)=O)OC(C)=O [Glyceryl triacetate] here?
**A.** extremely low order of toxicity
